Test results taken from ChEMBL document CHEMBL5247649, “Comparative Efficacy and Selectivity of Pharmacological Inhibitors of DYRK and CLK Protein Kinases” (J Med Chem, 2023).

How the values were obtained:
[1] = target: Cyclin-dependent kinase 5/CDK5 activator 1 (Homo sapiens, UniProt Q00535); test: biochemical; assay type: cell-based, Sf9
[2] = target: Casein kinase I isoform epsilon (Homo sapiens, UniProt P49674); test: biochemical; assay type: cell-based, Sf9
[3] = target: Dual specificity protein kinase CLK3 (Homo sapiens, UniProt P49761); test: biochemical; assay type: cell-based, Sf9
Chain of Dual specificity protein kinase CLK3 (P49761 whole entry): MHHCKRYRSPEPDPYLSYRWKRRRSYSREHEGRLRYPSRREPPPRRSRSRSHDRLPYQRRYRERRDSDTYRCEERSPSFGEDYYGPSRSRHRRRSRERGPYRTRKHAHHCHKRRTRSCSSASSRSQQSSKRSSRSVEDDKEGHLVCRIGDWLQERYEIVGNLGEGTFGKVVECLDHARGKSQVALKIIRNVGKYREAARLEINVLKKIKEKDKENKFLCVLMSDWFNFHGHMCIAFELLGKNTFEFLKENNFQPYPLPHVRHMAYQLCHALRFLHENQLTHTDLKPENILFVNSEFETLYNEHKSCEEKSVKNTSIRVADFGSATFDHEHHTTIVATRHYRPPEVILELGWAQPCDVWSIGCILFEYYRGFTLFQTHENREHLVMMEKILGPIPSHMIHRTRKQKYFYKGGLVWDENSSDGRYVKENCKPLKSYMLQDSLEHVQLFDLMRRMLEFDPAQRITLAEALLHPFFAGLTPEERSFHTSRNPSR

[4] = target: T1, Dual specificity tyrosine-phosphorylation-regulated kinase 4 (Homo sapiens, UniProt Q9NR20); test: biochemical; assay type: cell-based, Sf9
T1 sequence (Q9NR20 whole entry): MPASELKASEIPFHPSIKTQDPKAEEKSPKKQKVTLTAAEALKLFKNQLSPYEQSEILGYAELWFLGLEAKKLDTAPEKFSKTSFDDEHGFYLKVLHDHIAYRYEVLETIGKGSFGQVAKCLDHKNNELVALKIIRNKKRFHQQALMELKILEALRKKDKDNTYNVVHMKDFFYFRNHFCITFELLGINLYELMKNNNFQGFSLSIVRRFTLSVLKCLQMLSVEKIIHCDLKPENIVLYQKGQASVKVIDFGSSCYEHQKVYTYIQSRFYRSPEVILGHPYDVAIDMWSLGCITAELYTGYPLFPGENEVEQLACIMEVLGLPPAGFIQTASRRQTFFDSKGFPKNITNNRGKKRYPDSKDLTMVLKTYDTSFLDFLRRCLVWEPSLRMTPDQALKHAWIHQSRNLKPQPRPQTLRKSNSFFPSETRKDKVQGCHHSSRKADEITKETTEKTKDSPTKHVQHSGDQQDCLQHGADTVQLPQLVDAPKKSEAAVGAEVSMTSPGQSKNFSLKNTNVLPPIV

[5] = target: T2, Glycogen synthase kinase-3 beta (Homo sapiens, UniProt P49841); test: biochemical; assay type: cell-based, Sf9
T2 sequence (P49841 whole entry): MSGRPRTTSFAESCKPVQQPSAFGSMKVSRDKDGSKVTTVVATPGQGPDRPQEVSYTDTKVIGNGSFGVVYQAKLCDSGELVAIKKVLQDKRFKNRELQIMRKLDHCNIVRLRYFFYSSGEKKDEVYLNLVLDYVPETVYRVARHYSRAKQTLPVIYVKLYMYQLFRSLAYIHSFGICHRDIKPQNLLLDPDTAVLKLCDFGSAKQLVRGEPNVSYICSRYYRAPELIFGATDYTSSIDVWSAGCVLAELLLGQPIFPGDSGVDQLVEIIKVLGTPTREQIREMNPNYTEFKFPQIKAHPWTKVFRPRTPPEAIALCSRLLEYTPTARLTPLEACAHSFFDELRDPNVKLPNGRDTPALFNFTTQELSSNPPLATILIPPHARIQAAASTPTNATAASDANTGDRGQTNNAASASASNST

[6] = target: T2, Glycogen synthase kinase-3 beta
[7] = in vitro; details: mouse, ht-22
[8] = target: Dual specificity protein kinase CLK2 (Homo sapiens, UniProt P49760); test: biochemical
Chain of Dual specificity protein kinase CLK2 (P49760 whole entry): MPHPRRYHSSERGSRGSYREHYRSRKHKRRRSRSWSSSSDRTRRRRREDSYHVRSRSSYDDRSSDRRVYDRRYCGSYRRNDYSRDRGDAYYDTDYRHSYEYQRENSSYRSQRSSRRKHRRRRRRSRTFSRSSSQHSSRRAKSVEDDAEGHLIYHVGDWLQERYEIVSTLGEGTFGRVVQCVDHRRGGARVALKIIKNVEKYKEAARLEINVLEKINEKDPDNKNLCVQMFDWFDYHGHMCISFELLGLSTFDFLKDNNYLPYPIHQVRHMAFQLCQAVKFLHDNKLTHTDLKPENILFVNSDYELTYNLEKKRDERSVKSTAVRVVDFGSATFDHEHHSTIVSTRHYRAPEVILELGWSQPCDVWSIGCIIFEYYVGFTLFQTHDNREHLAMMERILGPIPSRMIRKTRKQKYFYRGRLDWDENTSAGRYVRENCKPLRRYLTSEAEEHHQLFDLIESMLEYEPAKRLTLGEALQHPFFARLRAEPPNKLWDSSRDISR

[9] = target: Dual specificity protein kinase CLK4 (Homo sapiens, UniProt Q9HAZ1); test: biochemical
Chain of Dual specificity protein kinase CLK4 (Q9HAZ1 whole entry): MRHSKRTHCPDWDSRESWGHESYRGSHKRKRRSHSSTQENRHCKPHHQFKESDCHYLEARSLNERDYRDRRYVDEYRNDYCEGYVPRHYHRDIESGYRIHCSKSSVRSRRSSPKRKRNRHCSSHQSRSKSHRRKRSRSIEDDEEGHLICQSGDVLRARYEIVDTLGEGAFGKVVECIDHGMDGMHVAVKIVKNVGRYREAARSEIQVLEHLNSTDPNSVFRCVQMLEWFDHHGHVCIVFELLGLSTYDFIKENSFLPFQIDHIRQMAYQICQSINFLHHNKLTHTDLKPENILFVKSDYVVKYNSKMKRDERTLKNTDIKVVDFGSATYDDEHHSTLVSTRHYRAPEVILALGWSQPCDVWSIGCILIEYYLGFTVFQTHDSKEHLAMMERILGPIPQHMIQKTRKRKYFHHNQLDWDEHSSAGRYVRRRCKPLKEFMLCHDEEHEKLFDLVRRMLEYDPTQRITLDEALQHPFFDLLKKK

[10] = target: T3, Dual specificity protein kinase CLK1 (Homo sapiens, UniProt P49759); test: biochemical; assay type: cell-based, Sf9
T3 sequence (P49759 whole entry): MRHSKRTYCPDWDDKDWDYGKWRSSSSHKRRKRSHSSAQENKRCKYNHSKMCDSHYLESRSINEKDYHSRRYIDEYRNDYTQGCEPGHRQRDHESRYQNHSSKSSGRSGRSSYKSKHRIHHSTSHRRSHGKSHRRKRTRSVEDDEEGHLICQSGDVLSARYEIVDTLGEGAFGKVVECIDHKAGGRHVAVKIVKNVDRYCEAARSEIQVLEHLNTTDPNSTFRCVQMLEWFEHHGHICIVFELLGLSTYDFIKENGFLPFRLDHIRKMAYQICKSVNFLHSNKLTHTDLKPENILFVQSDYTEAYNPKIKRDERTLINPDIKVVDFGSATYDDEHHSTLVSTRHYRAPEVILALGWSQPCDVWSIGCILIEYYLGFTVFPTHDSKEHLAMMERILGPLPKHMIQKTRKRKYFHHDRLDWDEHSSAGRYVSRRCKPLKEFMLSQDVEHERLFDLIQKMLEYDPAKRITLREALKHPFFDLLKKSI

[11] = target: T4, Dual specificity tyrosine-phosphorylation-regulated kinase 2 (Homo sapiens, UniProt Q92630); test: biochemical; assay type: cell-based, Sf9
T4 sequence (Q92630 whole entry): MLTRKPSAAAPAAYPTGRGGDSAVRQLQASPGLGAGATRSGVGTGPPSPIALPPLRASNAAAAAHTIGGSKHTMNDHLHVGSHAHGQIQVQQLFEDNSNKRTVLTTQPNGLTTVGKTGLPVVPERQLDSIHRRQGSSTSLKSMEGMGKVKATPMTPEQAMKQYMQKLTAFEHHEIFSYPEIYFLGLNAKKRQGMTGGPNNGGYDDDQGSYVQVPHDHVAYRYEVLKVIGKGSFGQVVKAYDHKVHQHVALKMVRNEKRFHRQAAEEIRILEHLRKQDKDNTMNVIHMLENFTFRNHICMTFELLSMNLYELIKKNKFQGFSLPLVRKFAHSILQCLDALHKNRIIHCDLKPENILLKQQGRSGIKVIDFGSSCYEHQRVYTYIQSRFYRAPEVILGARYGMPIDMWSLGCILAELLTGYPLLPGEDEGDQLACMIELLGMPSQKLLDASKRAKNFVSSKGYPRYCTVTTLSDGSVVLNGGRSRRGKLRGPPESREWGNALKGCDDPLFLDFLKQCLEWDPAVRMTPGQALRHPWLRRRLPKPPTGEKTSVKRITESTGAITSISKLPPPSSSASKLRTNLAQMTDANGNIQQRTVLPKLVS

[12] = target: T5, Dual specificity tyrosine-phosphorylation-regulated kinase 3 (Homo sapiens, UniProt O43781); test: biochemical; assay type: cell-based, Sf9
T5 sequence (O43781 whole entry): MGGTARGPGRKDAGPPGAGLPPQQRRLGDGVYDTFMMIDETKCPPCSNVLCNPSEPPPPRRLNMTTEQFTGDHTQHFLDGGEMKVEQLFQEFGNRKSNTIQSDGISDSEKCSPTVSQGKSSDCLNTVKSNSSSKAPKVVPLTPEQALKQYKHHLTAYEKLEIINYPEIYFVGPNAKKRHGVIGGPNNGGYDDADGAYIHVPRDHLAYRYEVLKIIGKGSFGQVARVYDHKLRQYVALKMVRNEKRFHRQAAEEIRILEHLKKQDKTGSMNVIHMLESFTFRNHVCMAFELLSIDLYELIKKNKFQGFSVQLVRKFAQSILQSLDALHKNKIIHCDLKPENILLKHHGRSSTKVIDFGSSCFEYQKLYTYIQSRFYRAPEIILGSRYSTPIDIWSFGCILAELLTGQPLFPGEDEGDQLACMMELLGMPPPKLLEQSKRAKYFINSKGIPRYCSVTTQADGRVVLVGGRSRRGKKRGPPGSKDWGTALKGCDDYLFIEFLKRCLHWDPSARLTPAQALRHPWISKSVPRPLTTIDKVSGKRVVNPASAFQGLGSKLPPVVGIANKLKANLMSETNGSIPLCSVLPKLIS

[13] = target: T3, Dual specificity protein kinase CLK1; test: biochemical; assay type: cell-based, Sf9; details: read-out: IC50
[14] = target: T3, Dual specificity protein kinase CLK1

Chain of Casein kinase I isoform epsilon (P49674 whole entry, canonical isoform): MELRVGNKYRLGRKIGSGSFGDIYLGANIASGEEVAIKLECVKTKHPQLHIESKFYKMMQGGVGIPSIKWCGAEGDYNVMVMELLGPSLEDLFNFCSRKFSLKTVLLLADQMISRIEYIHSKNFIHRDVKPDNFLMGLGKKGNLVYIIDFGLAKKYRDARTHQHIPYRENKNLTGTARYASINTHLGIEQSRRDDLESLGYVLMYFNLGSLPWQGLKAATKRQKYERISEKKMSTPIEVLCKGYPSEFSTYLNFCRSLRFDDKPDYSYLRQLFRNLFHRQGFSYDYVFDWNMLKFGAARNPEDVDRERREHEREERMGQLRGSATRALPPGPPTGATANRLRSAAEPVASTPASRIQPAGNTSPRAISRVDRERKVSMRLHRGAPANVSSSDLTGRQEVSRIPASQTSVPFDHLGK
Chain of Cyclin-dependent kinase 5/CDK5 activator 1 (Q00535 whole entry, canonical isoform): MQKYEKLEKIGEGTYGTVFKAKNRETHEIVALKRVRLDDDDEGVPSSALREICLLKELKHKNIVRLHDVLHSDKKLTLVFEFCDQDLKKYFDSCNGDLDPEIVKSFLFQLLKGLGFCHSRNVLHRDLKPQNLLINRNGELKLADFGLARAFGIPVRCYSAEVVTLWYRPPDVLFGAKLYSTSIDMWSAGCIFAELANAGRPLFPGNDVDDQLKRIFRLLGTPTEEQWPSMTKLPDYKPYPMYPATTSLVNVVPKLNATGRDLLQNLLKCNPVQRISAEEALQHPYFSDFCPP
Chain of Cyclin-dependent kinase 5/CDK5 activator 1 (Q15078 whole entry, further chain, canonical isoform): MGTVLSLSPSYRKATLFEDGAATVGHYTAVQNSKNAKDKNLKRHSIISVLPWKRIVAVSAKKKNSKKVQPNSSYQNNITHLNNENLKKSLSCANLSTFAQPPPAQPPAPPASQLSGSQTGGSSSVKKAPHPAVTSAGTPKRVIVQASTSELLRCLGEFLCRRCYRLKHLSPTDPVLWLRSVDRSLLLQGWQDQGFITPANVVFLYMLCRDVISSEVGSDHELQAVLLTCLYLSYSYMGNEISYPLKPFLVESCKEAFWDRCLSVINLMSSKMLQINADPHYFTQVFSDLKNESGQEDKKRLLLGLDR

SMILES	IC50 [1] [nM]	IC50 [2] [nM]	IC50 [3] [nM]	IC50 [4] [nM]	IC50 [5] [nM]	Kd [6] [nM]	IC50 at 48 h [7] [nM]	IC50 [8] [nM]	IC50 [9] [nM]	IC50 [10] [nM]	IC50 [11] [nM]	IC50 [12] [nM]	IC50 [13] [nM]	Kd [14] [nM]
COc1ccc2nc3ccc(OC)cc3c(SCCCN)c2c1	> 10000	> 10000	7390	584	> 10000	2710	14500	2670	452					
CNCc1ccc(-c2[nH]c3cc(F)cc4c3c2CCNC4=O)cc1 [RUCAPARIB]		> 10000	> 10000	> 10000			57000	> 10000	> 10000	> 10000	> 10000	8030		
CN1CCN(c2cc(C(=O)Nc3cc4cc(-c5cnn(C)c5)ccc4cn3)ccn2)CC1	3960	3010					180		4.3	7.1			9.1	0.018
Cc1nc2ccc(-c3cc(N)nc(N)c3)nc2n1CC(F)(F)F	414	1770	1110	426			7700	24.7	16.2		8.8	> 10000		
COc1ccc(-n2c(C)c([N+](=O)[O-])c3ccc(O)cc32)cc1	> 10000	> 10000					> 100000					> 10000		
CC(C)Oc1ccc(F)c(-c2cnc(N)c(C(=O)Nc3cnccc3N3CCC[C@@H](C(=O)O)C3)n2)c1	470	630	2480	7330			16300	5.9	21.1	13.7	1580	5600	28.3	0.254
COc1ccc2c(c1)[nH]c1c(C)nccc12 [HARMINE]			8810	8360			56500	1150	102		3170	2860		
Cn1cc(-c2ccc3cnc(NC(=O)C4CCN(S(C)(=O)=O)CC4)cc3c2)cn1	1790	> 10000	681	612			5900	89.6	14.1	37.7	37.2	209	20.6	0.62
O=C(Nc1ccc2[nH]ncc2c1)c1csc(Nc2ccccc2)n1	> 10000	> 10000	> 10000	> 10000			> 100000	82	123	89.6	439	5450	507	200
COc1ccc2nc3c(CO)cc(OC)cc3c(SC[C@H]3CCNC3)c2c1	> 10000	> 10000	6500	1930	> 10000		14700	4290	537	1250				
O=C(O)c1ccc2c(c1)nc(Nc1cccc(Cl)c1)c1ccncc12 [SILMITASERTIB]	> 10000	> 10000	77.4	1520			21300		2.6		99.2	30.8		
O=C1NC(Nc2ccccc2)=N/C1=C\c1ccc2c(c1)OCO2		> 10000	2170	817	> 10000	561	> 100000		21.5					
[H]/N=C(\N/C(=N/[H])NCCCCCCNC(=N)NC(=N)Nc1ccc(Cl)cc1)Nc1ccc(Cl)cc1 [CHLORHEXIDINE]							5600	9160						
c1cc(OCCN2CCCCC2)cc(-c2n[nH]c3ccc(-c4nc[nH]n4)cc23)c1 [CC-401]	> 10000	1510	> 10000	> 10000			51700	405	154	441	7920	4310	2850	5.97
COc1ccc(/C=C2\SC(=S)NC2=O)cc1C#C[Si](C)(C)C	> 10000	> 10000	7230	> 10000	> 10000		64800	8410	> 10000	8310	> 10000	> 10000		
c1ccc(CNc2nc(Nc3cc(C4CC4)[nH]n3)c3sccc3n2)cc1		8360	1910	> 10000			54000	82.8		76.1	4730	4240	56.2	10.2
COc1ccc2sc(-c3cncc(NC(C)=O)c3)nc2c1	> 10000	> 10000	> 10000	> 10000	> 10000		100000	4410	340	572	1460	> 10000	385	
CCN1CCN(Cc2ccc(Nc3ncc(F)c(-c4cc(F)c5nc(C)n(C(C)C)c5c4)n3)nc2)CC1 [ABEMACICLIB]		> 10000	7480	3560			12200	185	89.9	64.7		20.6	81.4	0.851
Cc1ccc(-n2cc(COc3cccc4cnc(Nc5cccc(Cl)c5)nc34)nn2)c([N+](=O)[O-])c1	> 10000	> 10000		> 10000	> 10000	> 10000	100000					> 10000		
CC(C)CN1CCC(C(=O)Nc2cc3cc(-c4cnn(C)c4)ccc3cn2)CC1	1030	> 10000	2120	2480			4900	380	23.8	84	215	683	15	0.968
O=C1NC(NC23CC4CC(CC(C4)C2)C3)=N/C1=C\c1ccc2ncsc2c1	243	> 10000	812	117	4160	1760	6300							
